Consider 15 molecules from ChEMBL document CHEMBL1287744, “Potent and selective 5-LO inhibitor bearing benzothiophene pharmacophore: discovery of MK-5286” (Bioorg Med Chem Lett, 2010).

As a reminder, the Ki is the equilibrium dissociation constant of an inhibitor or competing ligand from its target. The term IC50 denotes the concentration needed to halve the response being measured. For orientation: Cmax means the maximum level reached in the sampled fluid or tissue. Broadly, the half-life is the time in which the quantity being followed falls by half.

Calls of active or inactive are those of the source. The calls are words filed in the database; no cut-off is given here. A value given as a limit tells only on which side of the number the result lay.

The target of data set [1] is Voltage-gated inwardly rectifying potassium channel KCNH2 (Homo sapiens, UniProt Q12809). Nature of the data set: Displacement of labeled MK-499 from human ERG.
Data set [2] has as its target T1, Polyunsaturated fatty acid 5-lipoxygenase (Homo sapiens, UniProt P09917).
T1 sequence (P09917 whole entry): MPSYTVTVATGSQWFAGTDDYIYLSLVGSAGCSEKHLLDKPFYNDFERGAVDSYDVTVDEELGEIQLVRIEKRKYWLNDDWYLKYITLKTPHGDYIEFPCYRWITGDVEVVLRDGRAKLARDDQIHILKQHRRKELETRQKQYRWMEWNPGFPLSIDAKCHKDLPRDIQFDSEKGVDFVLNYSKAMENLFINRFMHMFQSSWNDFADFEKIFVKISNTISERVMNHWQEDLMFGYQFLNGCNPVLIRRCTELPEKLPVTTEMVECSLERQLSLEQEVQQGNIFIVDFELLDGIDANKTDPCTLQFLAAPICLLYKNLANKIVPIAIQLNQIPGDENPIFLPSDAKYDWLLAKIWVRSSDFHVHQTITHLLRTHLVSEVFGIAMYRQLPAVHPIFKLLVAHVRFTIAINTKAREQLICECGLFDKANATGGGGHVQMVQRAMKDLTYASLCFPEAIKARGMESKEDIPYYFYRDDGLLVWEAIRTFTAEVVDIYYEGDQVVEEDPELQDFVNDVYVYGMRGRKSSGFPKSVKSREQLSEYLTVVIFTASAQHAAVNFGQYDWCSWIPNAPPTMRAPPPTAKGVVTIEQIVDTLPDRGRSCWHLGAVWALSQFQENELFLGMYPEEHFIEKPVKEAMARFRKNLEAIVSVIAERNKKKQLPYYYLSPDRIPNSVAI
Nature of the data set: Inhibition of 5-lipoxygenase in human whole blood assessed as inhibition of LTB4 production. In kind it is tissue-based.

In data set [3] the target is T1, Polyunsaturated fatty acid 5-lipoxygenase. Put plainly: Inhibition of human recombinant 5-lipoxygenase assessed as arachidonic acid oxidation.
Data set [4] is described as follows: Cmax in rhesus monkey at 5 mg/kg, iv and 4 mg/kg, po. In kind it is ADME, organism-based, Macaca mulatta. The settings on record: in vivo.
A short description of data set [5]: Oral bioavailability in rhesus monkey at 4 mg/kg. It is filed as ADME, organism-based, Macaca mulatta. Conditions: in vivo.
A short description of data set [6]: Half life in dog at 5 mg/kg, iv and 4 mg/kg, po. In kind it is ADME, organism-based, Canis lupus familiaris. Conditions: in vivo.
Data set [7] can be described thus: Half life in rat at 5 mg/kg, iv and 20 mg/kg, po. In kind it is ADME, organism-based. The settings on record: in vivo.
Data set [8] in a line: Cmax in rat at 5 mg/kg, iv and 20 mg/kg, po. The settings on record: in vivo. In kind it is ADME, organism-based.
The nature of data set [9]: Oral bioavailability in dog at 4 mg/kg. Conditions: in vivo. It is filed as ADME, organism-based, Canis lupus familiaris.
Data set [10] can be described thus: Cmax in dog at 5 mg/kg, iv and 4 mg/kg, po. In kind it is ADME, organism-based, Canis lupus familiaris. Conditions: in vivo.
Data set [11] is described as follows: Oral bioavailability in rat at 20 mg/kg. It is filed as ADME, organism-based. The settings on record: in vivo.
A short description of data set [12]: Half life in rhesus monkey at 5 mg/kg, iv and 4 mg/kg, po. In kind it is ADME, organism-based, Macaca mulatta. The settings on record: in vivo.
Data set [13] concerns the target T2, Polyunsaturated fatty acid lipoxygenase ALOX15 (Homo sapiens, UniProt P16050).
T2 sequence (P16050 whole entry): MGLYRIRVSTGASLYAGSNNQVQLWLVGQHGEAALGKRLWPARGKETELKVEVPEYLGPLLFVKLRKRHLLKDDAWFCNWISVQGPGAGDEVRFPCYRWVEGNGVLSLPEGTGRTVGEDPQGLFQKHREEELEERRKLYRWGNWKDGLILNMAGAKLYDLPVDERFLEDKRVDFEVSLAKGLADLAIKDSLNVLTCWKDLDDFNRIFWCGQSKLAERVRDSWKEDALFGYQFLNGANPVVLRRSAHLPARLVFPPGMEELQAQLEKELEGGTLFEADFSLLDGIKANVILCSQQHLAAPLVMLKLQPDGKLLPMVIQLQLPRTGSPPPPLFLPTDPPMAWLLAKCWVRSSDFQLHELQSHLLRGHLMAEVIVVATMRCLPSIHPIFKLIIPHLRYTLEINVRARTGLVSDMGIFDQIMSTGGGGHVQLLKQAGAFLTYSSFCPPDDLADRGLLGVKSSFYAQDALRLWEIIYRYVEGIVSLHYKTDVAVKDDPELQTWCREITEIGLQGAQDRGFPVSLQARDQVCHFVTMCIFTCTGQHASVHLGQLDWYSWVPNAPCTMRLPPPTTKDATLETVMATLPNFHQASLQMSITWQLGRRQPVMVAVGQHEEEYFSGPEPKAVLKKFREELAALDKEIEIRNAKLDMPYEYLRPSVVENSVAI
Put plainly: Inhibition of 15-lipoxygenase.

Data set [14] addresses T3, Polyunsaturated fatty acid lipoxygenase ALOX12 (Homo sapiens, UniProt P18054).
T3 sequence (P18054 whole entry): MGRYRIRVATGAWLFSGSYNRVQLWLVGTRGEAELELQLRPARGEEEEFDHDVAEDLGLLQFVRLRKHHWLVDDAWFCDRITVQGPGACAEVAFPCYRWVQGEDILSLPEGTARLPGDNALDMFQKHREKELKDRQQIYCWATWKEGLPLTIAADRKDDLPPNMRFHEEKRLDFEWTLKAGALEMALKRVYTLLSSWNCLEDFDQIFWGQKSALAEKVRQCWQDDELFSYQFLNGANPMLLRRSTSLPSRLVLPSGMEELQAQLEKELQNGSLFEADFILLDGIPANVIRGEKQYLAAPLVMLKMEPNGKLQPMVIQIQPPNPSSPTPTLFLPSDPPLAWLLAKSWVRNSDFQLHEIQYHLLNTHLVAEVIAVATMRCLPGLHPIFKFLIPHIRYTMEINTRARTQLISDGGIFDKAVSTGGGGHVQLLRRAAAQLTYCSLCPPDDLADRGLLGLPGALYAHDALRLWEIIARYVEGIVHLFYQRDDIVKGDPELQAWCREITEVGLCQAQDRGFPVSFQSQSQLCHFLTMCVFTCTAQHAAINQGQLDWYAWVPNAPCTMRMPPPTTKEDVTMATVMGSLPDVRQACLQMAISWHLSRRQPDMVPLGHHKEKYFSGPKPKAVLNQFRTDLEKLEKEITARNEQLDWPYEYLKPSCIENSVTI
Put plainly: Inhibition of 12-lipoxygenase.

Data set [15] concerns the target T4, Arachidonate 5-lipoxygenase-activating protein (Homo sapiens, UniProt P20292).
T4 sequence (P20292 whole entry): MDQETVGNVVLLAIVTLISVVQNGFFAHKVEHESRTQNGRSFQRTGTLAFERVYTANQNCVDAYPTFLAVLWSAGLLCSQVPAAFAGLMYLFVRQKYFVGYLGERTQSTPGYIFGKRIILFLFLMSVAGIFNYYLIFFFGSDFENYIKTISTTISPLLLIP
Put plainly: (§1) Inhibition of 5-lipoxygenase activating protein.

In data set [16] the target is T5, Arachidonate 5-lipoxygenase-activating protein (Homo sapiens) (UniProt P20292).
T5 sequence (whole entry): T4 sequence (P20292 whole entry)
The data set is described as §1.

Chain of Voltage-gated inwardly rectifying potassium channel KCNH2 (Q12809 whole entry): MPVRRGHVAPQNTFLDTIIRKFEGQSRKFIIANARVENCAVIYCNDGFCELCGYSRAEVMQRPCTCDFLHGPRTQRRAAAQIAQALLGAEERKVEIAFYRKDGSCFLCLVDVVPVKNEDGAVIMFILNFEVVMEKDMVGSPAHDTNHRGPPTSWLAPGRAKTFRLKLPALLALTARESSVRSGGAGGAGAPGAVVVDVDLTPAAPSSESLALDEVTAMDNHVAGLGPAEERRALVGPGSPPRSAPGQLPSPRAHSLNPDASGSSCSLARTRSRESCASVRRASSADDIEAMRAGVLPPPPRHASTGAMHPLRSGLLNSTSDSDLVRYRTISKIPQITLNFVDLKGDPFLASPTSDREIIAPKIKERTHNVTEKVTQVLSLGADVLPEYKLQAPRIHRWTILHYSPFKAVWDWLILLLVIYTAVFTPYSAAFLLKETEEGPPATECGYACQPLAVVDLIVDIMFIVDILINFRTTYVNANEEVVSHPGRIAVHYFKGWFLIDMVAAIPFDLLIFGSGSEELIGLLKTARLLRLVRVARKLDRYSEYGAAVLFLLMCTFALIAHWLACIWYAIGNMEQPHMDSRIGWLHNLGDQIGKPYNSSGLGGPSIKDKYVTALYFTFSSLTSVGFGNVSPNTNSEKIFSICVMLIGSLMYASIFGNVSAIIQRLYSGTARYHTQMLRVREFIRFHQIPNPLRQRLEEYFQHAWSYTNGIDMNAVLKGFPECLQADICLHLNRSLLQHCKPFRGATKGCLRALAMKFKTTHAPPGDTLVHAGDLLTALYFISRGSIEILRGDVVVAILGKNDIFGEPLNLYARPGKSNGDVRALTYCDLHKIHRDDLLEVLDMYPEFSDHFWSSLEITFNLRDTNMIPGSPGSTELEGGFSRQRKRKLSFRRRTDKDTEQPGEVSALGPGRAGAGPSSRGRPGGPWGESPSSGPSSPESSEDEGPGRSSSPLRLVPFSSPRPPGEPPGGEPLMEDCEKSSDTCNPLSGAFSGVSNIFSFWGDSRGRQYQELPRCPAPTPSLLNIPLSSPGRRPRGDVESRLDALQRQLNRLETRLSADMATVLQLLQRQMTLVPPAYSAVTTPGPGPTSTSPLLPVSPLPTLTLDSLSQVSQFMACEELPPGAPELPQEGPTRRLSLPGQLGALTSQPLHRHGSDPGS

For the molecule `CCC(O)(c1cn(Cc2ccc3c(-c4ccccc4)c(C(C)O)sc3c2)nn1)C(F)(F)F` (stereo not given), the Ki in [1] (read-out: Ki) was determined as 3800 nM. Further, the results for the IC50 in data set [2] and in data set [3] were 161 nM and 88 nM, respectively.
Turning to `CC[C@](O)(c1cn(Cc2ccc3c(-c4ccc(F)cc4)c(C(N)=O)sc3c2)nn1)C(F)(F)F`, the Cmax in [4] was 1.4 µM; in data set [8], 19.4 µM; in data set [10], 6.7 µM. The bioavailability in data set [5] is 66%; in data set [9], 120%; in [11], 114%. In addition, the half-life in data set [6] is 29 h; in data set [7], 7.9 h; in [12], 22 h. Further, the Ki in data set [1] (read-out: Ki) is 13000 nM. Further, the IC50 in data set [2] was 21 nM; in [3], 55 nM; in [13], more than 20000 nM; in data set [14] it was more than 20000 nM; in data set [15], more than 20000 nM.
On to `CC[C@@](O)(c1cn(Cc2ccc3c(-c4ccc(F)cc4)c(C(N)=O)sc3c2)nn1)C(F)(F)F`, for which the inhibition constant Ki in [1] (read-out: Ki) came to 11000 nM. In addition, the IC50 in [2] stood at 154 nM; in data set [3] it was 1160 nM.
Consider `CCC(O)(c1cn(Cc2ccc3c(-c4ccccc4)c(C(N)=O)sc3c2)nn1)C(F)(F)F` (stereo not given), for which the 50% inhibitory concentration (IC50) was 70 nM in data set [2] and 55 nM in data set [3].
As to `CCC(O)(c1cn(Cc2ccc3c(-c4ccccc4)c(C(C)(C)O)sc3c2)nn1)C(F)(F)F` (stereo not given), the inhibitory constant (Ki) in data set [1] (read-out: Ki) turned out to be 2600 nM. For the same molecule, the 50% inhibitory concentration (IC50) in data set [2] amounted to 392 nM; in [3], 198 nM.
For `CC[C@](O)(c1cn(Cc2ccc3c(-c4ccc(F)cc4)c(C(=O)O)sc3c2)nn1)C(F)(F)F`, in [1] (human), the “inhibition (INH)” value is recorded as “Not Active”. The Ki in data set [1] (read-out: Ki) is more than 20000 nM. Further, the IC50 in [2] is more than 20000 nM; in data set [3] it was more than 10000 nM. In addition, in [16], the inhibition result was “inactive”.
Consider `CCC(O)(c1cn(Cc2ccc3c(-c4ccccc4)c(CO)sc3c2)nn1)C(F)(F)F` (stereo not given), for which the inhibition constant (Ki) in data set [1] (read-out: Ki) was determined as 13000 nM. The IC50 is 64 nM in data set [2] and 19 nM in data set [3].
Consider `CCC(O)(c1cn(Cc2ccc3c(-c4ccccc4)c(C(=O)N(C)C)sc3c2)nn1)C(F)(F)F` (stereo not given), for which the inhibitory constant (Ki) in data set [1] (read-out: Ki) is more than 20000 nM. Besides, the IC50 in data set [2] stood at 1840 nM; in [3], 1890 nM.
In the case of `CCC(O)(c1cn(Cc2ccc3c(-c4ccccc4)c(C(=O)NC)sc3c2)nn1)C(F)(F)F` (stereo not given), the 50% inhibitory concentration (IC50) in [2] was 263 nM; in data set [3], 223 nM.
In the case of `CC[C@](O)(c1cn(Cc2ccc3c(-c4cccc(F)c4)c(C(N)=O)sc3c2)nn1)C(F)(F)F`, the Ki in [1] (read-out: Ki) worked out at 14000 nM. In addition, the IC50 in data set [2] is 31 nM; in data set [3], 39 nM.
Consider `CCC(O)(c1cn(Cc2ccc3c(-c4ccccc4)c(C(=O)O)sc3c2)nn1)C(F)(F)F` (stereo not given), for which the Ki in [1] (read-out: Ki) was more than 20000 nM. Moreover, the IC50 in data set [2] is more than 20000 nM; in data set [3], more than 10000 nM.
For the molecule `CC[C@](O)(c1cn(Cc2ccc3c(-c4ccccc4)c(C(N)=O)sc3c2)nn1)C(F)(F)F`, the figures for the half-inhibitory concentration (IC50) in data set [2] and in data set [3] were 32 nM and 28 nM, respectively.
With `CCC(O)(c1cn(Cc2ccc3c(-c4ccccc4)c(C(C)=O)sc3c2)nn1)C(F)(F)F` (stereo not given), the inhibitory constant (Ki) in data set [1] (read-out: Ki) was 4400 nM. For the same molecule, the IC50 in data set [2] came to 84 nM; in data set [3] it was 11 nM.
On to `CCC(O)(c1cn(Cc2ccc3c(-c4ccccc4)csc3c2)nn1)C(F)(F)F` (stereo not given), for which the Ki result in data set [1] is on record as “Not Active”. For the same molecule, the results for the IC50 in [2] and in [3] were 598 nM and 40 nM, respectively.
In the case of `CCC(O)(c1cn(Cc2ccc3c(-c4ccccc4)c(C(=O)OC)sc3c2)nn1)C(F)(F)F` (stereo not given), the IC50 in data set [2] worked out at 260 nM; in [3] it was 7.9 nM.
